Reference: US6503873B1, “Ultra mild detergent compositions” (Hampshire Chemical Corp, priority 1996, dated 2003)

How the values were obtained:
[1] = Lather stability (lather drainage time, method of Hart and DeGeorge); format: physicochemical; details: for enhancement of lather stability of the product by addition as one-third of the product: 3:1 blend; for change in lather stability (lather drainage time) on addition of water hardness: approximately 3,000 ppm water hardness (CaCO3), FIG. 2
Protocol: The lather stability of a surfactant solution, expressed as lather drainage time, can be determined by the method of Hart and DeGeorge, J. Soc. Cosmet. Chem., 31, 223-226 (1980). In this method, a 200 ml portion of the test solution is agitated in a blender for one minute. The lather produced is immediately poured into a Nalgene PF150 funnel, which has been modified for easy detection of endpoint by incorporation of a fine strand of Nicrome wire across the funnel, where the diameter is 9 cm. The funnel is supported by a 20-mesh sieve. The time elapsed between pouring of the blender contents into the funnel and reappearance of the wire through the subsiding foam, determined using a stopwatch, is reported as the lather drainage time in seconds.

human skin cels = experiment: In vitro skin irritation testing (MTT assay); format: cell-based; details: tissue immersed for 24 hours; about 16% solutions
Protocol: Samples of 1) the aforementioned commercial baby shampoo, 2) Na2LED3A, 3) a 3:1 ratio blend of baby shampoo and Na2LED3A, and 4) a 16% solution of sodium laureth 3 sulfate (a surfactant commonly used in ordinary shampoo) were subjected to in vitro skin irritation testing. A sample of the tissue is immersed for 24 hours in a solution of the substance to be evaluated and later assayed for viable mitochondria by an MTT assay. The MTT assay is a colorimetric method for determining cell viability based on the reduction of a tetrazolium salt (MTT) into a colored formazan dye by mitochondrial enzymes of the electron transport chain. The extent to which the number of viable mitochondria has been reduced, compared to a control, is taken as a measure of the toxicity of the test substance to human skin cels. The in vitro scoring classification used was as follows: […]

[2] = product Johnsons Baby 2 in 1 shampoo, hard water (200 ppm CaCO3)
[3] = product Johnsons Baby 2 in 1 shampoo, soft water
[4] = product Johnsons Baby Bath, hard water (200 ppm CaCO3)
[5] = product Johnsons Baby Bath, soft water
[6] = product Johnsons Baby Shampoo, hard water (200 ppm CaCO3)
[7] = product Johnsons Baby Shampoo, soft water
[8] = product Suave Baby Care, hard water (200 ppm CaCO3)
[9] = product Suave Baby Care, soft water
[10] = sodium chloride, 1% solution, pH 7, FIG. 1

Compound | enhancement of lather stability of the product by addition as one-third of the product [1, 2] | enhancement of lather stability of the product by addition as one-third of the product [1, 3] | enhancement of lather stability of the product by addition as one-third of the product [1, 4] | enhancement of lather stability of the product by addition as one-third of the product [1, 5] | enhancement of lather stability of the product by addition as one-third of the product ([1]; product Johnsons Baby Shampoo, even harder water (400 ppm CaCO3)) | enhancement of lather stability of the product by addition as one-third of the product [1, 6] | enhancement of lather stability of the product by addition as one-third of the product [1, 7] | enhancement of lather stability of the product by addition as one-third of the product [1, 8] | enhancement of lather stability of the product by addition as one-third of the product [1, 9] | lather effectiveness relative to the baby shampoo alone ([1]; pure substance, hard water, versus Johnsons Baby 2 in 1 shampoo, FIG. 11) | change in lather stability (lather drainage time) on addition of water hardness ([1]; 1% solution) | lather drainage time depressed by, upon addition of 4% electrolyte [1, 10] | Classification (in vitro skin irritation) (human skin cels) | In vitro Score MTT-50 (human skin cels) | lather drainage time ([1]; in the presence of 200 ppm hardness, FIG. 10) | lather drainage time increased by, upon addition of 4% electrolyte [1, 10]
CCCCCCCCCCCC(=O)N(CCN(CC(=O)[O-])CC(=O)[O-])CC(=O)O.[K+].[K+] [K2LED3A, potassium lauroyl-ED3A] | approximately 7 fold | more than 2 fold | approximately 12 fold | approximately 5 fold | more than 24 fold | more than 14 fold | approximately 8 fold | 5 fold | approximately 2 fold |  |  |  |  |  |  | 
CCCCCCCCCCCCCC(=O)N(CCN(CC(=O)[O-])CC(=O)[O-])CC(=O)O.[Na+].[Na+] [Na2MED3A, sodium myristoyl ED3A] | 9 fold | more than 9 fold |  |  |  |  |  |  |  | more than 100 times |  |  |  |  |  | 
CCCCCCCCCCCCOS(=O)(=O)[O-].[Na+] [sodium lauryl sulfate, reference compound] |  |  |  |  |  |  |  |  |  |  | five-fold reduction | 30 s |  |  |  | 
sodium laureth 3 sulfate [Na Laureth(3) sulfate, reference compound] |  |  |  |  |  |  |  |  |  |  |  |  | Moderate (201-1,000) | 522 micro g/ml |  | 
sodium lauroyl ED3A [Na2LED3A] | 5 fold | approximately 6 fold | more than 12 fold | more than 4 fold |  | approximately 7 fold | approximately 7 fold | more than 5 fold | more than doubled |  | five-fold increase |  | Non-irritant (>10,000) | >10,000 micro g/ml | over 200 seconds | more than 70 seconds
